The target of the experiment is T1, human recombinant LPA2 expressed in CHO cells (Homo sapiens, UniProt Q9HBW0).
T1 construct: expressed in transfected cells; host or cells: CHO cells (CHO-hLPA2 cell line)
Description: FLIPR calcium mobilization assay, LPA2 antagonism in CHO-hLPA2 cells. The format is cell-based. Particulars: CHO-hLPA2 cells, inhibition of LPA EC80 Ca2+ response, 30 min pre-incubation; read-out: LPA2 IC50. The protocol: The effectiveness of compounds of the present invention as LPA2 antagonist can be determined at the human recombinant LPA2 expressed in CHO cells, using a FLIPR assay in 384 well format.
CHO-hLPA2 cell lines are cultured in a humidified incubator at 5% C02 in DMEM/F-12 (1:1) MIXTURE with 2 mM Glutamax, supplemented with 10% of Foetal Bovine Serum, 1 mM Sodium Pyruvate, 11 mM Hepes and 1× Penicillin/Streptomycin. CHO hLPA2 cells are seeded into black walled clear-bottom 384-well plates (#781091, Greiner Bio-One GmbH) at a density of 7,500 cells per well in 50 μl culture media and grown overnight in a 37° C. humidified CO2-incubator. Serial dilutions (1:3 or 1:4, 11 points CRC) of compounds are performed in 100% DMSO at 200× the final concentration. The compounds are diluted 1:50 prior to the experiment with Assay Buffer (20 mM HEPES, 145 mM NaCl, 5 mM KCl, 5.5 mM glucose, 1 mM MgCl2 and 2 mM CaCl2, pH 7.4 containing 0.01% Pluronic F-127) to obtain a solution corresponding to […] the final concentration in the assay (4×, 2% DMSO). The final concentration of DMSO in the assay will be 0.5% in each well. Medium is removed by aspiration and cells are then incubated with 30 μl of a loading solution containing 5 μM of the cytoplasmic Ca2+ indicator Cal-520 AM in Assay Buffer containing 2.5 mM probenecid for 30 min at 37° C. incubator (cell loading). The loaded cell plates are transferred into the FLIPR instrument and calcium responses are monitored during the on-line addition protocols. For testing of compounds, after the cell loading, 10 μl/well of 4× antagonists' solution was added onto the cells. After 30 min pre-incubation (at 37° C.), 10 μl/well of 5× concentrated LPA EC80 was added and Ca2+ mobilization responses was followed during the on-line addition protocol. Intracellular peak fluorescence values subtracted by baseline fluorescence are exported and analysed to determine IC50 values, respectively. The calcium response is expressed as percentage of the maximal inhibition of the EC80 agonist response.
The raw data (peak height expressed as relative fluorescence units) are normalized and transformed into “percent of inhibition”. Curve fitting and pIC50 (−LogIC50) estimations are carried out using a four-parameter logistic model using XLfit Software.
For orientation: Calcium flux is commonly read through the fluorescence of an indicator in the cells.

The results in this text go back to patent publication US20240190860A1, “8-CYCLO-SUBSTITUTED QUINAZOLINE DERIVATIVES AS LPA RECEPTOR 2 INHIBITORS” (CHIESI FARMACEUTICI S.p.A., priority 2021, published 2024).

T1 sequence (Q9HBW0 whole entry): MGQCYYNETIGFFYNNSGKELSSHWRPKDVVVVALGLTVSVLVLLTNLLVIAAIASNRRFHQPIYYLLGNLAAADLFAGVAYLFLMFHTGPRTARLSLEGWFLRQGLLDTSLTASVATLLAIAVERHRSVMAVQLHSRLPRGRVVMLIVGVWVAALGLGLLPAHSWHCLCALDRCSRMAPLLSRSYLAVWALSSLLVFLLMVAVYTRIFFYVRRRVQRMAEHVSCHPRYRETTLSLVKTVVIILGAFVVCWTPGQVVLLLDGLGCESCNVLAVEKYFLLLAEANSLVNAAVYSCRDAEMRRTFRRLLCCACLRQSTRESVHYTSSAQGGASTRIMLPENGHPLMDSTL

For the molecule `Cc1cc(-c2ccc(S(=O)(=O)N3CCN(C[C@H](C)Nc4ncnc5c(-c6cncnc6)cccc45)CC3)s2)on1` [Example 11, N-[(2S)-1-(4-{[5-(3-methyl-1,2-oxazol-5-yl)thiophen-2-yl]sulfonyl}piperazin-1-yl)propan-2-yl]-8-(pyrimidin-5-yl)quinazolin-4-amine], the IC50 was less than 10 nM.

Regarding `Cc1cc(-c2ccc(S(=O)(=O)N3CCN(C[C@H](C)Nc4ncnc5c(-c6ccccn6)cccc45)CC3)s2)on1` [Example 12, N-[(2S)-1-(4-{[5-(3-methyl-1,2-oxazol-5-yl)thiophen-2-yl]sulfonyl}piperazin-1-yl)propan-2-yl]-8-(pyridin-2-yl)quinazolin-4-amine], the IC50 was less than 10 nM.

On to `Cc1cc(-c2ccc(S(=O)(=O)N3CCN(C[C@H](C)Nc4ncnc5c(-c6cn(C)nc6C(F)(F)F)cccc45)CC3)s2)on1` [Example 14, N-[(2S)-1-(4-{[5-(3-methyl-1,2-oxazol-5-yl)thiophen-2-yl]sulfonyl}piperazin-1-yl)propan-2-yl]-8-[1-methyl-3-(trifluoromethyl)-1H-pyrazol-4-yl]quinazolin-4-amine], for which the IC50 was less than 10 nM.

Take `Cc1cc(-c2ccc(S(=O)(=O)N3CCN(C[C@H](C)Nc4ncnc5c(-c6cnc(C(F)(F)F)s6)cccc45)CC3)s2)on1` [Example 15, N-[(2S)-1-(4-{[5-(3-methyl-1,2-oxazol-5-yl)thiophen-2-yl]sulfonyl}piperazin-1-yl)propan-2-yl]-8-[2-(trifluoromethyl)-1,3-thiazol-5-yl]quinazolin-4-amine]: the IC50 is less than 1000 nM.

For `Cc1cc(-c2ccc(S(=O)(=O)N3CCN(C[C@H](C)Nc4ncnc5c(-c6cccc(CN7CCCC7)c6)cccc45)CC3)s2)on1` [Example 16, N-[(2S)-1-(4-{[5-(3-methyl-1,2-oxazol-5-yl)thiophen-2-yl]sulfonyl}piperazin-1-yl)propan-2-yl]-8-{3-[(pyrrolidin-1-yl)methyl]phenyl}quinazolin-4-amine], the 50% inhibitory concentration (IC50) is less than 10 nM.

With `Cc1cc(-c2ccc(S(=O)(=O)N3CCN(C[C@H](C)Nc4ncnc5c(-c6cccc(CN(C)C)c6)cccc45)CC3)s2)on1` [Example 17, 8-{3-[(dimethylamino)methyl]phenyl}-N-[(2S)-1-(4-{[5-(3-methyl-1,2-oxazol-5-yl)thiophen-2-yl]sulfonyl}piperazin-1-yl)propan-2-yl]quinazolin-4-amine], the IC50 is less than 10 nM.

For the molecule `Cc1cc(-c2ccc(S(=O)(=O)N3CCN(C[C@H](C)Nc4ncnc5c(-c6cn(C)nc6C6CC6)cccc45)CC3)s2)on1` [Example 18, 8-(3-cyclopropyl-1-methyl-1H-pyrazol-4-yl)-N-[(2S)-1-(4-{[5-(3-methyl-1,2-oxazol-5-yl)thiophen-2-yl]sulfonyl}piperazin-1-yl)propan-2-yl]quinazolin-4-amine], the concentration for half-maximal inhibition (IC50) was less than 10 nM.

For the molecule `Cc1cc(-c2ccc(S(=O)(=O)N3CCN(CCNc4ncnc5c(-c6cccnc6)cccc45)CC3)s2)on1` [Example 19, N-[2-(4-{[5-(3-methyl-1,2-oxazol-5-yl)thiophen-2-yl]sulfonyl}piperazin-1-yl)ethyl]-8-(pyridin-3-yl)quinazolin-4-amine], the IC50 is less than 1000 nM.

In the case of `Cc1cc(-c2ccc(S(=O)(=O)N3CCN(C[C@H](C)Nc4ncnc5c(N6CCCC6)cccc45)CC3)s2)on1` [Example 20, N-[(2S)-1-(4-{[5-(3-methyl-1,2-oxazol-5-yl)thiophen-2-yl]sulfonyl}piperazin-1-yl)propan-2-yl]-8-(pyrrolidin-1-yl)quinazolin-4-amine], the IC50 is less than 10 nM.

For the molecule `COC(=O)Nc1nc(C)c(S(=O)(=O)N2CCN(C[C@H](C)Nc3ncnc4c(-c5cccc(CN(C)C)c5)cccc34)CC2)s1` [Example 21, methyl N-[5-({4-[(2S)-2-[(8-{3-[(dimethylamino)methyl]phenyl}quinazolin-4-yl)amino]propyl]piperazin-1-yl}sulfonyl)-4-methyl-1,3-thiazol-2-yl]carbamate], the 50% inhibitory concentration (IC50) is less than 10 nM.

In general, IC50 refers to the concentration needed to halve the response being measured.
